Data set [1] can be described thus: Stability in air / chemical stability (description). The following applies: for stability in air: normal conditions / ambient temperature.
Data set [2] in a line: Humid storage of the crystalline forms II and III at 25° C. and 60% relative air humidity. The data set is classed as physicochemical. As for the experimental part: Storage conditions: 25° C. and 60% relative air humidity for 5 hrs, 24 hrs and 7 days
The substances were weighed directly into DSC and TGA crucibles, and these crucibles were stored in a climate chamber.
50 mg of the substances were weighed into 1 ml vials, three times in each case, and these vials were then stored openly in a climate chamber.

A short description of data set [3]: Absorption of water by dynamic vapour sorption (DVS). The data set is classed as physicochemical. The following applies: 25° C.; for water content of the sample if the relative air humidity is reduced to 0%: 0% relative air humidity; for water content of the sample if the relative air humidity is reduced to 0% / water content at 50% relative air humidity at the end of the measuring cycle / relative air humidity above which the crystalline form absorbs water very quickly: hydrochloride. As for the experimental part: The absorption of water is ascertained by dynamic vapour sorption (DVS) with a DVS-1 instrument manufactured by Surface Measurement Systems Ltd. The sample is placed in a platinum crucible at the pivot of a microbalance. The sample is then initially equilibrated at 50% relative air humidity and then subjected to a predefined measuring program. The temperature was 25° C. The change in weight of the sample is determined.

For data set [4] the following is noted: for sequence of stability at room temperature: conditions for avoiding the formation of solvates, from Examples 8.1 to 8.4; for crystalline form found by Raman spectrum: Example 8.4: forms IV and II together in ethyl acetate.
Data set [5] is described as follows: Hydrate formation in the presence of atmospheric moisture (description). The data set is classed as physicochemical. The note with it: for relative air humidity at which hydrates of the crystalline form V are formed: hydrochloride.
Data set [6] is described as follows: Thermodynamic stability of the crystalline form (description). The data set is classed as physicochemical. The note with it: low temperatures.
The mark [7] stands for this setting: 25° C., 60% relative air humidity, 24 hours, second test series.
Setting [8] is: Example 8.3: forms III and II together in ethyl acetate, three days, 23° C.
[9] abbreviates: presence of atmospheric moisture.
Where [10] appears, read: Example 8.1: forms I and II together in ethyl acetate, eleven days, 25° C.
Where [11] appears, read: stir-mixing in ethyl acetate, 23° C.

Experimental findings from patent US8058476B2, “HCI polymorphs of 3-((2-(dimethylamino)methyl(cyclohex-1-yl)) phenol” (priority 2005, dated 2011) are described below.

Entries after “also recorded” stand apart in the source; their conditions may differ. Where a name gives a salt, the structure may show the parent alone. Read-outs that look alike come from different tables or passages of the source.

Turning to `CN(C)CC1CCCCC1c1cccc(O)c1` [crystalline form V, (1R,2R)-3-[2-(dimethylamino)methyl(cyclohex-1-yl)]phenol hydrochloride], the stability in air result in data set [1] (hydrochloride) is given as “stable in air under normal conditions; also recorded: stable at ambient temperature in air”.
For `CN(C)C[C@@H]1CCCC[C@H]1c1cccc(O)c1.Cl` [crystalline form III, (1R,2R)-3-[2-(dimethylamino)methyl-(cyclohex-1-yl)]phenol hydrochloride], the water absorbed in data set [2] (25° C., 60% relative air humidity, 5 hours, first test series (DSC and TGA crucibles), listed as modification III, hydrochloride) is 6.70%; in data set [2] (25° C., 60% relative air humidity, 5 hours, second test series (50 mg in open 1 ml vials), listed as modification III, hydrochloride) it was 1.92%; in data set [2] (25° C., 60% relative air humidity, 24 hours, first test series, listed as modification III, hydrochloride), 6.28%. Moreover, the water content in data set [2] (setting [7]) is listed as 6.08%; in data set [2] (25° C., 60% relative air humidity, one week, first test series, listed as modification III, hydrochloride), 6.74%; in data set [2] (25° C., 60% relative air humidity, one week, second test series, listed as modification III, hydrochloride), 6.83%. Also, the “water content of the sample if the relative air humidity is reduced to 0%” value in data set [3] is given as 3.1 wt. %. In addition, the “water content at 50% relative air humidity at the end of the measuring cycle” value in data set [3] is given as 7.8%. Also, the “recorded Raman spectrum at the end of the measuring cycle” value (from here on “recorded Raman spectrum at the end”) in data set [3] is “corresponds to the Raman spectrum of the crystalline form V”. The “relative air humidity above which the crystalline form absorbs water very quickly” value in data set [3] is listed as over 55%. The “crystalline form found by Raman spectrum after stirring” value is reported as “only bands of the crystalline form I were measured” in data set [4] (Example 8.2: forms III and IV together in ethyl acetate, twelve days, 23° C.); “only bands of the crystalline form II are measured” in data set [4] (setting [8]). The “sequence of stability at room temperature” value (“sequence of stability” for short) in data set [4] is on record as “I>II>III≈IV”. Moreover, in data set [5] (setting [9]), the “relative air humidity at which hydrates of the crystalline form V are formed” value is over 50%. In addition, the stability in air result in data set [1] was “stable under normal conditions in air and with exclusion of atmospheric moisture”.
`CN(C)CC1CCCCC1c1cccc(O)c1` [Amorphous compounds of the formula (1), (1R,2R)-3-[2-(dimethylamino)-methyl(cyclohex-1-yl)]phenol hydrochloride]: the “stability of the amorphous form” value in data set [1] (in the presence of moisture tends to form hydrates) was “not very stable”.
As to `CN(C)C[C@@H]1CCCC[C@H]1c1cccc(O)c1.Cl` [crystalline form I, (1R,2R)-3[-2-(dimethylamino)methyl-(cyclohex-1-yl)]phenol hydrochloride], in data set [3], the “water content of the sample if the relative air humidity is reduced to 0%” value came out at 3.2 wt. %, the “water content at 50% relative air humidity at the end of the measuring cycle” value was 7.2%, the “recorded Raman spectrum at the end” value is on record as “corresponds to the Raman spectrum of the crystalline form V” and the “relative air humidity above which the crystalline form absorbs water very quickly” value is listed as over 50%. The “temperature up to which the form is thermodynamically the most stable form” value in data set [6] is “approximately 40 °C”. The “crystalline form found by Raman spectrum after stirring” value in data set [4] (setting [10]) is “predominantly contained the crystalline form I and small amounts of form V”. Moreover, in data set [4], the “sequence of stability” value was “I>II>III≈IV”. In data set [5] (setting [9]), the “relative air humidity at which hydrates of the crystalline form V are formed” value is given as over 50%.
`CN(C)C[C@@H]1CCCC[C@H]1c1cccc(O)c1.Cl` [crystalline form II, (1R,2R)-3-[2-(dimethylamino)methyl-(cyclohex-1-yl)]phenol hydrochloride]: the water absorbed is recorded as 0.04% in data set [2] (25° C., 60% relative air humidity, 5 hours, first test series (DSC and TGA crucibles), listed as modification II, hydrochloride); 0.12% in data set [2] (25° C., 60% relative air humidity, 5 hours, second test series (50 mg in open 1 ml vials), listed as modification II, hydrochloride); 3.28% in data set [2] (25° C., 60% relative air humidity, 24 hours, first test series, listed as modification II, hydrochloride). Also, the water content amounted to 6.08% in data set [2] (setting [7]); 7.03% in data set [2] (25° C., 60% relative air humidity, one week, first test series, listed as modification II, hydrochloride); 7.04% in data set [2] (25° C., 60% relative air humidity, one week, second test series, listed as modification II, hydrochloride). In data set [2] (25° C., 60% relative air humidity, both test series), the water-absorption behavior entry is given as “absorbs water more slowly in both tests than modification III”. In data set [2] (5 hours of storage at a relative air humidity of 60%), the “proportion of water after storage” value is on record as under 0.15 wt. %. Also, the “water content of the sample if the relative air humidity is reduced to 0%” value in data set [3] is recorded as 3.3 wt. %. Besides, the “water content at 50% relative air humidity at the end of the measuring cycle” value in data set [3] is given as 7.9%. Also, in data set [3], the “recorded Raman spectrum at the end” value is given as “corresponds to the Raman spectrum of the crystalline form V”. In addition, the “relative air humidity above which the crystalline form absorbs water very quickly” value in data set [3] is recorded as over 75%. Further, the “crystalline form found by Raman spectrum after stirring” value was “predominantly contained the crystalline form I and small amounts of form V” in data set [4] (setting [10]); “only bands of the crystalline form II are measured” in data set [4] (setting [8]). Besides, the “crystalline form found by Raman spectrum” value in data set [4] (23° C., after 32 days) is recorded as “almost exclusively the crystalline form I was detected”; in data set [4] (23° C., after the first three days) it was “the first traces of the crystalline form I were detected”; in data set [4] (23° C., initially), “only bands of the crystalline form II were measured”. Besides, the “sequence of stability” value in data set [4] is given as “I>II>III≈IV”. For the same compound, in data set [4] (setting [11]), the “time at which a small proportion of the crystalline form I can be detected” value is “after three days of stir-mixing”. Moreover, the “time until complete conversion into the crystalline form I” value in data set [4] (setting [11]) is 32 days. Further, the hygroscopicity entry in data set [5] (compared with other crystalline forms) was “less hygroscopic than the compounds of the crystalline forms I, III and IV”. The “relative air humidity at which hydrates of the crystalline form V are formed (only slowly)” value in data set [5] (setting [9]) was over 70%. Further, in data set [5] (setting [9]), the “relative air humidity at which hydrates of the crystalline form V are formed” value is given as over 70%. Further, the chemical stability entry in data set [1] is listed as “good chemical stability”. The stability in air result in data set [1] is “stable under normal conditions in air and with exclusion of atmospheric moisture”.
For the compound `CN(C)CC1CCCCC1c1cccc(O)c1` [crystalline form IV, (1R,2R)-3-[2-(dimethylamino)methyl(cyclohex-1-yl)]phenol hydrochloride], the “sequence of stability” value in data set [4] was “I>II>III≈IV”. Also, the stability in air entry in data set [1] (hydrochloride) was “stable under normal conditions in air and with exclusion of atmospheric moisture”.
